Reference: PubChem BioAssay (NCI)
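Cells were grown in 96-well plates and exposed to each compound for 48 hours at five concentrations; endpoints were interpolated linearly between bracketing concentrations, or set to the highest concentration if not reached. Abbreviation: GI50, concentration required for 50% inhibition of growth. TGI is the concentration that stops growth completely.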

Legend:
Experiment in all cases: NCI-60 cell line screen, 48 h
[1] = tested on: HCC-2998 colon
[2] = tested on: HCT-116 colon
[3] = tested on: LOX IMVI melanoma
[4] = tested on: NCI-H226 lung
[5] = tested on: SF-268 CNS
[6] = tested on: SF-295 CNS
[7] = tested on: T-47D breast
[8] = tested on: UACC-257 melanoma
[9] = tested on: UACC-62 melanoma
[10] = tested on: OVCAR-4 ovarian

| SMILES | TGI [1] [µM] | TGI [2] [µM] | TGI [3] [µM] | TGI [4] [µM] | TGI [5] [µM] | TGI [6] [µM] | TGI [7] [µM] | TGI [8] [µM] | TGI [9] [µM] | GI50 [1] [µM] | GI50 [2] [nM] | GI50 [3] [µM] | GI50 [4] [µM] | GI50 [10] [µM] | TGI [10] [µM] | GI50 [5] [µM] | GI50 [6] [µM] | GI50 [7] [µM] | GI50 [8] [µM] | GI50 [9] [µM] |
| --- | --- | --- | --- | --- | --- | --- | --- | --- | --- | --- | --- | --- | --- | --- | --- | --- | --- | --- | --- | --- |
| CNC1C(O)C(OC2C(N)CC(N)C(OC3OC(CN)=CCC3N)C2O)OCC1(C)O (stereo not given) | > 100 | > 100 | > 100 | > 100 | > 100 | > 100 | > 100 | > 100 | > 100 |  |  |  |  |  |  |  |  |  |  |  |
| COC(=O)C(Cc1cnc[nH]1)NC(=O)CNC(=O)CCCn1c(=O)c2c3ccccc3n(C)c2n2nnc(-c3ccccc3)c12 (stereo not given) | > 100 | > 100 | > 100 | > 100 | > 100 | > 100 | > 100 | > 100 | > 100 | > 100 | > 100000 | > 100 | > 100 | > 100 | > 100 | > 100 | > 100 | > 100 | > 100 | > 100 |
| C=C(C)[C@@H]1CC[C@]2(C(N)=O)CC[C@]3(C)[C@H](CC[C@@H]4[C@@]5(C)CC[C@H](O)C(C)(C)[C@@H]5CC[C@]43C)[C@@H]12 | 12.9 | 3.96 | 3.23 | 17.8 | > 100 | 24.8 | 26.9 | > 100 | 23.1 | 3.96 | 1970 | 1.77 | 4.1 | 3.54 | 19.8 | 4.34 | 3.39 | 4.55 | 13.2 | 4.2 |
| Cc1nc2ccccn2c1NC(=O)NNC(=S)Nc1ccc(Br)cc1 | 73.1 | 62.9 | 67.3 | > 100 | > 100 | > 100 | > 100 | > 100 | > 100 | 27.4 | 22900 | 24 | 38.4 | 66.2 | > 100 | 67.9 | 57.5 | 48.2 | 37.8 | 27.8 |
| CC(C)CC1C(=O)N2CCC[C@H]2C2(O)O[C@](NC(=O)C3C=C4c5cccc6[nH]c(Br)c(c56)C[C@H]4N(C)C3)(C(C)C)C(=O)N12 (stereo not given in full) |  | > 100 | > 100 | > 100 | > 100 | > 100 | > 100 | > 100 | > 100 |  |  | 21.6 | 11.3 | 5.78 | > 100 | 9.02 | 5.3 | 2.9 | 16.7 | 29.7 |
| C[C@H]1CC[C@H]([C@@H](C)[C@H]2[C@@H](O)C[C@H]3[C@@H]4CC[C@H]5C[C@@H](O)CC[C@]5(C)[C@H]4CC[C@]23C)NC1 | 35.5 | 31.7 | 50.6 | 39.5 | 67.1 | 39.2 | 30.8 | 35.7 | 28.5 |  |  |  |  |  | 34.1 |  |  |  |  |  |
| CCOC(CCCNCCCn1c2c(c3cc(OC)c(OC)cc3c1=O)C(=O)c1cc3c(cc1-2)OCO3)OCC |  | 9.83 | 9.81 | 10.7 | 10.4 | 8.6 | 14.4 | 13.7 | 12.2 |  | 2410 | 1.73 | 3.43 | 6.69 | 13.1 | 2.97 | 1.45 | 7.76 | 7.21 | 6.03 |
| C=CC(=O)N1C/C(=C\c2ccccc2)C(=O)/C(=C/c2ccccc2)C1 | 3.67 | 0.397 | 0.638 | 10.6 | 5.61 | 5.07 | 18.4 | 4.29 | 3.68 |  | 355 | 0.357 |  |  | 6.6 |  |  |  |  |  |
| Nc1ccccc1SC(CC(=O)c1ccccc1)c1ccc([N+](=O)[O-])cc1 (stereo not given) | 29.6 | 3.16 | 4.15 | 36.3 | 25.8 | 30 | 36.3 | 27.8 | 24.5 | 15.8 | 1670 | 1.91 | 18 | 12.6 | 25.9 | 12.4 | 16.1 | 12.1 | 14.5 | 12.1 |
| CCNCCC1(CC)C(=O)NC(=O)NC1=O | > 100 | > 100 | > 100 | > 100 | > 100 | > 100 | > 100 | > 100 | > 100 | > 100 |  |  |  |  | > 100 |  |  |  |  |  |
| C[C@@H](N)C1CCC(C(=O)Nc2ccncc2)CC1 (stereo not given in full) | > 100 | > 100 | > 100 | > 100 | > 100 | > 100 | > 100 | > 100 | > 100 | > 100 | > 100000 | > 100 | > 100 | > 100 | > 100 | > 83 | > 100 | > 100 | > 100 | > 100 |
| Cc1ccc(S(=O)(=O)Oc2ccc([N+](=O)[O-])cc2[N+](=O)[O-])cc1 |  | 13.2 | 15 | 43.6 | 15 | 25.2 | 45 | 12.2 | 30.9 |  | 3160 | 3.23 | 10.6 | 7.51 | 20.4 | 3.64 | 10.4 | 15.3 | 2.77 | 12.4 |
| Cc1cc(C(=O)Nc2nc3cccc(Cl)c3n2[C@@H]2CCCCN(C(=O)/C=C/CN(C)C)C2)ccn1 | 30.9 | 19.5 | 23.9 | 32.1 | 28.3 | 28.6 | 23.7 | 34.1 | 31.5 | 15.6 | 6500 | 10.1 | 16.3 | 7.18 | 26.4 | 10.6 | 13.9 | 1.5 | 18.8 | 15.3 |
